# Assay results published in patent publication US11198673B2, “Therapeutic compounds and compositions” (eXIthera Pharmaceuticals, Inc., priority 2014, dated 2021).
# Experiments:
# Thrombin = molecular target: T1, Thrombin (Homo sapiens, UniProt P00734); assay: Dose response assay for protease inhibitors: thrombin (FXIa fold selectivity); type: biochemical; details: fold selectivity for FXIa over thrombin
# T1 construct: Thrombin; 0.2 μM in 50% glycerol (7.34 μg/mL)
# Experimental: (§1) • Assay buffer: 20 mM Hepes, pH 7.4; 150 mM NaCl; 0.02% Tween 20 • Compounds: 10 mM stocks in DMSO • Substrate: 20 mM Glp-Pro-Arg-AMC, 25 mg/2.3 mL H2O (store at +4° C.) [Factor XIa, thrombin, and trypsin] • 20 mM Pro-Phe-Arg-AMC (Bachem I-1295), 25 mg/2.2 mL H2O (store at +4° C.) [Factor Xa] • Enzyme: Factor XIa; 0.25 μM in 50% glycerol (20 μg/mL) • Trypsin; 0.2 μM in 50% glycerol (4.8 μg/mL) • Thrombin; 0.2 μM in 50% glycerol (7.34 μg/mL) • Factor Xa; 0.2 μM in 50% glycerol (9.2 μg/mL) • These stocks are aliquoted ([…]) and stored at −20° C. Methods: • 1. Dilute the substrate to 100 μM in assay buffer (30 μL/6 mL). The enzyme is diluted to 0.5 nM just prior to use (12 μL/6 mL for Factor XIa; 15 μL/6 mL for all of the rest.) • 2. Pipette 50 μL of substrate into each well of the 96 well (12×8) microtiter plate. (Column 1 is used as the 100% activity control and receives no compound, and Column 12 is the blank and receives no enzyme.) Add an additional 46 μL to column 2. • 3. Pipette 4 μL of each compound into the appropriate well in column 2 of the plate (unknowns assayed in triplicate, standard assayed in duplicate). The final compound concentration will be 1/50th of the stock. • 4. Serially two-fold dilute the compound by mixing the sample in column 2, removing 50 μL to the next well (column 3), mix and remove to column 4, etc. until column 11. After mixing column 11, remove 50 μL and discard. • 5. Pipette 50 μL of buffer into column 12. Initiate the reaction by adding 50 μL of enzyme solution to each well of columns 1-11 as rapidly as possible. • 6. Read the plate in a spectrophotometer (SpectraMax) at 30° C., wherein each well is measured every 60 s for 30 min. For Factor Xa assays, each well is measured every 1 min for a total of 60 min. • 7. For Factor XIa assays, the compounds are assayed, in duplicate, at 3 different starting concentrations, 20, 2, and 0.2 μM; 1:10, 1:100, and 1:1000 dil'n of 10 mM stock. All data sets are combined for graphing and data fitting. • 8. Data can be used both for estimation of IC50 and for estimation of Kon.
# Trypsin = assay: Dose response assay for protease inhibitors: trypsin (FXIa fold selectivity); type: biochemical; details: fold selectivity for FXIa over trypsin
# Experimental: as §1
# human Factor XIa = molecular target: T2, human Factor XIa (Homo sapiens, UniProt P03951); assay: Factor XIa enzyme inhibition assay (IC50, purified enzyme); type: biochemical; details: purified enzyme 0.25 nM, substrate 50 μM; read-out: Potency hFXIa IC50
# T2 construct: Enzyme: Factor XIa; 0.25 μM in 50% glycerol (20 μg/mL)
# T2 sequence (P03951 388-625 limits assumed): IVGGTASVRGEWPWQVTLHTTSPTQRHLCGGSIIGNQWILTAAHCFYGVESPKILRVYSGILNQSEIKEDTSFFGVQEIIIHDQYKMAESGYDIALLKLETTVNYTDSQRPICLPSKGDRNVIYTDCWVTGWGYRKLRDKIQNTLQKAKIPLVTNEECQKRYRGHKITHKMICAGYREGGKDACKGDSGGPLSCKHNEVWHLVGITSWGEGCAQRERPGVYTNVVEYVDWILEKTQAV
# T2 sequence (P03951 19-387 partner limits assumed): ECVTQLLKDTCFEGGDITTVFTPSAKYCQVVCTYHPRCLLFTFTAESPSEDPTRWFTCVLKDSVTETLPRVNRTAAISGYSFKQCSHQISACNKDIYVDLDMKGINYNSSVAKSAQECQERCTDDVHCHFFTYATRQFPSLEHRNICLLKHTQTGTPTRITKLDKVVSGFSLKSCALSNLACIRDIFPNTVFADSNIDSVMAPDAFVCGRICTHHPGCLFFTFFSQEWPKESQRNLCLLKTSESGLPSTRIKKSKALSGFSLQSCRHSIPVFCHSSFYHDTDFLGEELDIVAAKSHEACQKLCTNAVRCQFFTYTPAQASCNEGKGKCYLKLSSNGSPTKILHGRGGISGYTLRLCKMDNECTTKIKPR
# Experimental: as §1
# Potential inhibitors of Factor XIa were evaluated using the following assay.
# S-2366, pyroGlu-Pro-Arg-7-methylaminocourin (AMC), available from CPC Scientific, Inc., is based on the substrate pyro-Glu-Pro-Arg-pNA, available from Diapharma Group, Inc. (Columbus, Ohio), where the p-nitroanaline group is replaced with 7-methylaminocoumarin (AMC).
# The final concentration of the substrate in the assay was 50 μM, and the final concentration of the enzyme was 0.25 nM. Inhibitors were tested by serial dilution over an appropriate range to yield a dose response curve for determination of the inhibitors' IC50 value. The assay mixture was read every minute for 30 minutes in order to generate progress curves. The plates were read in a Spectramax m5 Multimode Plate Reader (Molecular Devices LLC, Sunnyvale, Calif.). Dose response curves were fit to Equation 1 below in which A is the maximum inhibition, B is the minimum inhibition, C is the IC50, and D is the Hill coefficient. [(A−B)/(1+(X/C)^D)]+B (Equation 1)
# Factor Xa = molecular target: T3, Factor Xa (Homo sapiens, UniProt P00742); assay: Dose response assay for protease inhibitors: Factor Xa (FXIa fold selectivity); type: biochemical; details: fold selectivity for FXIa over Factor Xa
# T3 construct: Factor Xa; 0.2 μM in 50% glycerol (9.2 μg/mL)
# T3 sequence (P00742 235-488 limits assumed): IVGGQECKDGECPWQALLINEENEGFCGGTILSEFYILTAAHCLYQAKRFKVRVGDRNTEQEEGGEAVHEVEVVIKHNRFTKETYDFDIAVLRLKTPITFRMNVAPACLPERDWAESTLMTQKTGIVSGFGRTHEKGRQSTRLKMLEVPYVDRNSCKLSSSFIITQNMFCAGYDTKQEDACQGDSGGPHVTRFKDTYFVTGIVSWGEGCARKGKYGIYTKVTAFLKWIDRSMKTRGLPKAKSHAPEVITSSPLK
# T3 sequence (P00742 41-179 partner limits assumed): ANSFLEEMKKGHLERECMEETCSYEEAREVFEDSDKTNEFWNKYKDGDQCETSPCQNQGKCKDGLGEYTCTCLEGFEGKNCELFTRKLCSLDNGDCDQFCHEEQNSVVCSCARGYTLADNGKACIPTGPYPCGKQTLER
# Experimental: as §1
# [1] = β-Lactam stability in rat plasma; type: in vitro ADME; details: normal rat plasma, room temperature; read-out: Rat Plasma Stability (T1/2; min)
# Experimental: Normal rat plasma, stored at −80° C.
# • 1. Place 6 μL of each compound into 0.5 mL microcentrifuge tubes or 96-well U-bottom, polypropylene microtiter plate • 2. Place 40 μL of acetonitrile (AcN) into 0.5 mL microcentrifuge tubes labeled 1-9 • 3. Add 114 μL of plasma to each compound • 4. Sample 10 μL of compound/plasma into AcN at 2, 10, 20, 30, 60, 90, 120, 240, and 480 min of incubation at room temperature • 5. Mix each time point after adding sample and place on ice. • 6. Centrifuge time points (12,000 rpm, 3 min), remove 15 μL of the supernatant and mix with 15 μL 0.1% TFA in a V-bottom microtiter plate. • 7. Place microtiter plate in autosampler of HPLC and analyze on Restek Pinnacle C18 column (2.1×100 mm). • 8. Generate extracted ion chromatogram for parent compound and parent compound+18 (H2O). Integrate extracted ion chromatograms (EIC) and plot % total peak area for parent and adduct versus time. Fit to a model of single phase exponential decay [Y=A0*exp(−k*x)+C]. T½ is equal to ln(2)/k.
SMILES,FXIa Fold Selectivity Thrombin (Thrombin),IC50 (human Factor XIa) [nM],FXIa Fold Selectivity FXa (Factor Xa),half-life [1] [h],FXIa Fold Selectivity Trypsin (Trypsin)
COC(=O)[C@@H]1[C@@H](Cc2ccc(Cl)s2)C(=O)N1C(=O)N[C@H](C)c1ccccc1 [Example 2],G (“G” indicates 1-500),> 1000,–,> 1.67,G (“G” indicates 1-500)
C[C@@H](NC(=O)N1C(=O)[C@H](Cc2ccnc(N)c2)[C@H]1C(N)=O)c1ccccc1 [Example 26],I (“I” indicates >1000),< 10,H (“H” indicates 500-1000),< 1.67,I (“I” indicates >1000)
Nc1cc(C[C@H]2C(=O)N(C(=O)NC(c3ccccc3)c3ccccc3)[C@@H]2Oc2ccccc2)ccn1 [Example 27],G (“G” indicates 1-500),10 to 100,H (“H” indicates 500-1000),< 1.67,G (“G” indicates 1-500)
COc1cccc([C@@H](C)NC(=O)N2C(=O)[C@H](Cc3ccnc(N)c3)[C@H]2C(=O)O)c1 [Example 29],I (“I” indicates >1000),< 10,I (“I” indicates >1000),> 1.67,G (“G” indicates 1-500)
CC(C)[C@@H](C)NC(=O)N1C(=O)[C@H](Cc2ccnc(N)c2)[C@H]1C(=O)O [Example 32],G (“G” indicates 1-500),10 to 100,G (“G” indicates 1-500),> 1.67,G (“G” indicates 1-500)
C[C@@H](NC(=O)N1C(=O)[C@H](Cc2ccnc(N)c2)[C@H]1C#N)c1ccccc1 [Example 34],I (“I” indicates >1000),< 10,I (“I” indicates >1000),< 1.67,G (“G” indicates 1-500)
CC[C@@H](NC(=O)N1C(=O)[C@H](Cc2ccnc(N)c2)[C@H]1C(=O)O)c1ccccc1 [Example 36],I (“I” indicates >1000),< 10,I (“I” indicates >1000),–,G (“G” indicates 1-500)
C[C@@H](NC(=O)N1C(=O)[C@H](Cc2ccnc(N)c2)[C@H]1C(=O)O)c1ccc(F)cc1 [Example 37],I (“I” indicates >1000),< 10,H (“H” indicates 500-1000),–,I (“I” indicates >1000)
C[C@@H](NC(=O)N1C(=O)[C@H](Cc2ccnc(N)c2)[C@H]1S(C)(=O)=O)c1ccccc1 [Example 39],G (“G” indicates 1-500),100 to 1000,G (“G” indicates 1-500),< 1.67,G (“G” indicates 1-500)
C[C@@H](NC(=O)N1C(=O)[C@H](Cc2ccnc(N)c2)[C@H]1C(=O)O)c1cccnc1 [Example 54],I (“I” indicates >1000),10 to 100,H (“H” indicates 500-1000),–,G (“G” indicates 1-500)
CC(=O)OCOC(=O)[C@@H]1[C@@H](Cc2ccnc(NC(=O)OCOC(=O)C(C)C)c2)C(=O)N1C(=O)N[C@H](C)c1ccc2c(c1)OC(F)(F)O2 [Example 180],–,10 to 100,–,< 1.67,–

# Now from value to compound, other results behind:
FXIa Fold Selectivity Thrombin (Thrombin),IC50 (human Factor XIa) [nM],FXIa Fold Selectivity FXa (Factor Xa),half-life [1] [h],SMILES,FXIa Fold Selectivity Trypsin (Trypsin)
G (“G” indicates 1-500),< 10,G (“G” indicates 1-500),–,C[C@@H](NC(=O)N1C(=O)[C@H](Cc2ccnc(N)c2)[C@H]1C(=O)OCc1ccccc1)c1ccccc1 [Example 1],G (“G” indicates 1-500)
H (“H” indicates 500-1000),< 10,I (“I” indicates >1000),> 1.67,NC(=O)[C@@H]1[C@@H](Cc2ccnc(N)c2)C(=O)N1C(=O)NC(c1ccccc1)c1ccccc1 [Example 22],I (“I” indicates >1000)
G (“G” indicates 1-500),100 to 1000,G (“G” indicates 1-500),–,Nc1ncc(C[C@H]2C(=O)N(C(=O)NC(c3ccccc3)c3ccccc3)[C@@H]2C(=O)O)s1 [Example 23],G (“G” indicates 1-500)
G (“G” indicates 1-500),> 1000,–,–,C[C@@H](NC(=O)N1C(=O)[C@H](Cc2cnc(N)s2)[C@H]1C(=O)O)c1ccccc1 [Example 24],G (“G” indicates 1-500)
G (“G” indicates 1-500),100 to 1000,G (“G” indicates 1-500),–,Nc1cc(CC[C@H]2C(=O)N(C(=O)NC(c3ccccc3)c3ccccc3)[C@@H]2C(=O)O)ccn1 [Example 25],G (“G” indicates 1-500)
I (“I” indicates >1000),10 to 100,I (“I” indicates >1000),< 1.67,N#C[C@@H]1[C@@H](Cc2ccnc(N)c2)C(=O)N1C(=O)NC(c1ccccc1)c1ccccc1 [Example 28],G (“G” indicates 1-500)
G (“G” indicates 1-500),100 to 1000,G (“G” indicates 1-500),> 1.67,Nc1cc(C[C@H]2C(=O)N(C(=O)NCC(c3ccccc3)c3ccccc3)[C@@H]2C(=O)O)ccn1 [Example 31],G (“G” indicates 1-500)
G (“G” indicates 1-500),> 1000,F (“F” indicates <1),> 1.67,CCO[C@@H]1[C@@H](Cc2ccnc(N)c2)C(=O)N1C(=O)NC(c1ccccc1)c1ccccc1 [Example 33],G (“G” indicates 1-500)
G (“G” indicates 1-500),100 to 1000,G (“G” indicates 1-500),< 1.67,CS(=O)(=O)[C@@H]1[C@@H](Cc2ccnc(N)c2)C(=O)N1C(=O)NC(c1ccccc1)c1ccccc1 [Example 35],G (“G” indicates 1-500)
G (“G” indicates 1-500),10 to 100,I (“I” indicates >1000),–,CCOC(=O)[C@@H]1[C@@H](Cc2ccnc(N)c2)C(=O)N1C(=O)NC(c1ccccc1)c1ccccc1 [Example 46],G (“G” indicates 1-500)
